{"source": "BindingDB's records for doi:10.1016/S0960-894X(00)80679-4", "about": "(1993)", "molecular_target": "Gastrin/cholecystokinin type B receptor (Cavia porcellus)", "assay": "In vitro binding affinity against Cholecystokinin type B receptor in guinea pig brain membranes", "data": [{"smiles": "CCCC[C@H](NC(=O)[C@H](Cc1ccc(OS(=O)(=O)O)cc1)NC(=O)OC(C)(C)C)C(=O)NCC(=O)N[C@H](Cc1c[nH]c2ccccc12)C(=O)N[C@@H](CCCC)C(=O)N[C@@H](CC(=O)O)C(=O)NCCc1ccccc1", "note": "[(S)-3-{(S)-2-[(R)-2-(2-{(S)-2-[(S)-2-tert-Butoxycarbonylamino-3-(4-sulfooxy-phenyl)-propionylamino]-hexanoylamino}-acetylamino)-3-(1H-indol-3-yl)-propionylamino]-hexanoylamino}-N-phenethyl-succinamic acid]", "values": [{"measurement": "IC50", "result": 1000, "unit": "nM"}]}]}
